Experiment: Effect of phosphate and borate buffers on chemical stability (% remaining, impurity profile), osmolality, pH and appearance of 25HC3S 30 mg/mL in 250 mg/mL HPBCD at 80°C and 60°C
Type: physicochemical
Experimental: A total of six 25HC3S formulations at 30 mg/mL in 250 mg/mL of 2-hydroxypropyl beta cyclodextrin (HPBCD) containing 10, 20, 50 and 100 mM phosphate buffers at pH 7.5 to 8.1 and 10 and 50 mM borate buffers at pH 9.4 were prepared for the stability study. The chemical stability (measured as % remaining of 25HC3S) and physical stability (osmolality, pH and appearance) of the formulations were monitored under accelerated conditions for up to 7 days at 80° C. and up to 29 days at 60° C.
Two stock solutions of phosphate buffer at 100 and 200 mM at pH 7.4 and 7.3, respectively and one borate buffer at 100 mM at pH 9.3 were prepared (Tables 22A and 22B) and used for 250 mg/mL HPBCD vehicles preparation (Table 23).
Approximately 1200 mg each of 25HC3S was weighed into 40 mL volumetric flasks and diluted to volume with the six HPBCD vehicles containing 10-100 mM phosphate buffers or 10 and 50 mM borate buffers, respectively (Table 24). The final concentration of 25HC3S was 30 mg/mL (wt/volume, without adjusting for API purity). Aliquots of 2 mL of each formulation were filled into 2 mL glass vials, stoppered and sealed for stability sample set-up at 60° C. and 80° C. to study the effect of phosphate buffer (pH 7.5-8.1) and borate buffer (pH 9.4) at various buffer concentrations on the stability of the HPBCD formulations (Table 26).
A 0.5 mL of sample solution was transferred to a 25 mL volumetric flask and QS'ed with methanol/water=95/5 for 25HC3S concentration determination by HPLC. The % remaining of 25HC3S was calculated as follows: […]

[1] = 60° C., day 0, Phosphate 100 mM
[2] = 60° C., day 29, Phosphate 10 mM
[3] = 60° C., day 29, Phosphate 20 mM
[4] = 60° C., day 29, Phosphate 50 mM
[5] = 60° C., day 29, Phosphate 100 mM

C[C@H](CCCC(C)(C)O)[C@H]1CC[C@H]2[C@@H]3CC=C4C[C@@H](OS(=O)(=O)[O-])CC[C@]4(C)[C@H]3CC[C@]12C.[Na+] [25HC3S, 5-cholesten-3, 25-diol, 3-sulfate]
pH (60° C., day 0, Borate 50 mM): 9.40
25HC3S (60° C., day 0, Phosphate 10 mM): 28.45 mg/mL
% Peak Area 25-Hydroxy Cholesterol at RRT = 3.67 (60° C., day 0, Phosphate 10 mM): 0.0 % Peak Area
% Peak Area 25HC3S (60° C., day 0, Phosphate 10 mM): 99.8 % Peak Area
% Peak Area Major Thermal Degradant at RRT = 2.64 (60° C., day 0, Phosphate 10 mM): 0.3 % Peak Area
% Remaining of 25HC3S (60° C., day 0, Phosphate 10 mM): 100.0%
Osmolality (60° C., day 0, Phosphate 10 mM): 273 mmol/kg
pH (60° C., day 0, Phosphate 10 mM): 8.09
25HC3S (60° C., day 0, Phosphate 20 mM): 28.63 mg/mL
% Peak Area 25-Hydroxy Cholesterol at RRT = 3.67 (60° C., day 0, Phosphate 20 mM): 0.0 % Peak Area
% Peak Area 25HC3S (60° C., day 0, Phosphate 20 mM): 99.7 % Peak Area
% Peak Area Major Thermal Degradant at RRT = 2.64 (60° C., day 0, Phosphate 20 mM): 0.3 % Peak Area
% Remaining of 25HC3S (60° C., day 0, Phosphate 20 mM): 100.0%
Osmolality (60° C., day 0, Phosphate 20 mM): 311 mmol/kg
pH (60° C., day 0, Phosphate 20 mM): 7.81
25HC3S (60° C., day 0, Phosphate 50 mM): 28.50 mg/mL
% Peak Area 25-Hydroxy Cholesterol at RRT = 3.67 (60° C., day 0, Phosphate 50 mM): 0.0 % Peak Area
% Peak Area 25HC3S (60° C., day 0, Phosphate 50 mM): 99.7 % Peak Area
% Peak Area Major Thermal Degradant at RRT = 2.64 (60° C., day 0, Phosphate 50 mM): 0.3 % Peak Area
% Remaining of 25HC3S (60° C., day 0, Phosphate 50 mM): 100.0%
Osmolality (60° C., day 0, Phosphate 50 mM): 415 mmol/kg
pH (60° C., day 0, Phosphate 50 mM): 7.63
25HC3S [1]: 28.58 mg/mL
% Peak Area 25-Hydroxy Cholesterol at RRT = 3.67 [1]: 0.0 % Peak Area
% Peak Area 25HC3S [1]: 99.8 % Peak Area
% Peak Area Major Thermal Degradant at RRT = 2.64 [1]: 0.3 % Peak Area
% Remaining of 25HC3S [1]: 100.0%
Osmolality [1]: 573 mmol/kg
pH [1]: 7.53
25HC3S (60° C., day 29, Borate 10 mM): 26.55 mg/mL
% Peak Area 25-Hydroxy Cholesterol at RRT = 3.67 (60° C., day 29, Borate 10 mM): 1.3 % Peak Area
% Peak Area 25HC3S (60° C., day 29, Borate 10 mM): 98.5 % Peak Area
% Peak Area Major Thermal Degradant at RRT = 2.64 (60° C., day 29, Borate 10 mM): 0.3 % Peak Area
% Remaining of 25HC3S (60° C., day 29, Borate 10 mM): 92.9%
Osmolality (60° C., day 29, Borate 10 mM): 326 mmol/kg
pH (60° C., day 29, Borate 10 mM): 8.90
25HC3S (60° C., day 29, Borate 50 mM): 27.03 mg/mL
% Peak Area 25-Hydroxy Cholesterol at RRT = 3.67 (60° C., day 29, Borate 50 mM): 1.3 % Peak Area
% Peak Area 25HC3S (60° C., day 29, Borate 50 mM): 98.5 % Peak Area
% Peak Area Major Thermal Degradant at RRT = 2.64 (60° C., day 29, Borate 50 mM): 0.3 % Peak Area
% Remaining of 25HC3S (60° C., day 29, Borate 50 mM): 94.8%
Osmolality (60° C., day 29, Borate 50 mM): 541 mmol/kg
pH (60° C., day 29, Borate 50 mM): 9.19
25HC3S [2]: 26.65 mg/mL
% Peak Area 25-Hydroxy Cholesterol at RRT = 3.67 [2]: 1.4 % Peak Area
% Peak Area 25HC3S [2]: 98.3 % Peak Area
% Peak Area Major Thermal Degradant at RRT = 2.64 [2]: 0.3 % Peak Area
% Remaining of 25HC3S [2]: 93.7%
Osmolality [2]: 281 mmol/kg
pH [2]: 7.04
25HC3S [3]: 26.78 mg/mL
% Peak Area 25-Hydroxy Cholesterol at RRT = 3.67 [3]: 1.4 % Peak Area
% Peak Area 25HC3S [3]: 98.3 % Peak Area
% Peak Area Major Thermal Degradant at RRT = 2.64 [3]: 0.3 % Peak Area
% Remaining of 25HC3S [3]: 93.5%
Osmolality [3]: 322 mmol/kg
pH [3]: 7.17
25HC3S [4]: 26.63 mg/mL
% Peak Area 25-Hydroxy Cholesterol at RRT = 3.67 [4]: 1.4 % Peak Area
% Peak Area 25HC3S [4]: 98.3 % Peak Area
% Peak Area Major Thermal Degradant at RRT = 2.64 [4]: 0.3 % Peak Area
% Remaining of 25HC3S [4]: 93.4%
Osmolality [4]: 430 mmol/kg
pH [4]: 7.28
25HC3S [5]: 26.63 mg/mL
% Peak Area 25-Hydroxy Cholesterol at RRT = 3.67 [5]: 1.4 % Peak Area
% Peak Area 25HC3S [5]: 98.4 % Peak Area
% Peak Area Major Thermal Degradant at RRT = 2.64 [5]: 0.3 % Peak Area
% Remaining of 25HC3S [5]: 93.2%
Osmolality [5]: 592 mmol/kg
pH [5]: 7.28
Appearance (60° C., days 0 and 29, Borate 10 and 50 mM, merged cell wrapped over r16-r18: Clear colorless solution): Clear
Appearance (60° C., days 0 and 29, Phosphate 10, 20, 50 and 100 mM, merged cell wrapped over r8-r10: Clear colorless solution): Clear
% Peak Area 25-Hydroxy Cholesterol at RRT = 3.67 (80° C., day 0, Borate 10 mM): 0.0 % Peak Area
% Peak Area 25HC3S (80° C., day 0, Borate 10 mM): 99.7 % Peak Area
% Peak Area Major Thermal Degradant at RRT = 2.64 (80° C., day 0, Borate 10 mM): 0.3 % Peak Area
% Peak Area 25-Hydroxy Cholesterol at RRT = 3.67 (80° C., day 0, Borate 50 mM): 0.0 % Peak Area
% Peak Area 25HC3S (80° C., day 0, Borate 50 mM): 99.9 % Peak Area
% Peak Area Major Thermal Degradant at RRT = 2.64 (80° C., day 0, Borate 50 mM): 0.2 % Peak Area
% Peak Area 25-Hydroxy Cholesterol at RRT = 3.67 (80° C., day 0, Phosphate 10 mM): 0.0 % Peak Area
% Peak Area 25HC3S (80° C., day 0, Phosphate 10 mM): 99.8 % Peak Area

Source: US20230047788A1, “COMPOSITIONS COMPRISING 5-CHOLESTEN-3, 25-DIOL, 3-SULFATE (25HC3S) OR PHARMACEUTICALLY ACCEPTABLE SALT THEREOF AND AT LEAST ONE CYCLIC OLIGOSACCHARIDE” (Virginia Commonwealth University, priority 2016, published 2023)
